Experimental data from US20250073194A1, “RXR AGONISTS IN EYE DISORDERS” (Baylor College of Medicine, priority 2022, published 2025).
“Also recorded” adds a separate entry of the source.

Tests used:
[1] = system: γδ T cells; details: stimulated with anti-CD28 antibody and cytokine cocktail of IL-23 and IL-1; cited from earlier work
[2] = system: γδ T cells; assay: IL-17A/F in supernatants of stimulated cultured γδ T cells (ELISA); assay type: cell-based, mouse; details: for effect on IL-17A/F cytokine concentration in supernatants: C57BL/6 spleen γδ T cells, anti-CD3/CD28 beads plus recombinant IL-23, 10 and 100 nM (FIG. 12); for suppressive effect on supernatant IL-17 concentration: bead+IL-23 stimulated, 100 nM 9-cis RA, 96 hours
Procedure: (§1) Pooled γ/δ T17 cells from the spleens of 8-10 week old B6 and Pinkie mice were isolated using the TCR γ/δ T cells Isolation Kit according to the manufacturer's instruction (Miltenyi Biotec, Bergisch Gladbach, Germany). To determine the effect of 9CisRA and monocytes conditional media on IL17 cytokine production, the purified γδ T17 cells were stimulated with anti-CD3/CD28 Dynabeads (Catalog #11452D, Life Technologies AS, Norway) alone or in combination with IL-23 (10 ng/ml, eBioscience), 9-cisRA (100 nM) or monocyte conditioned media for 96 hours for cytokine measurement.
(§2) Mouse IL17 was measured from cell cultured supernatant after 96 hours incubation using a mouse IL-17 DuoSet Enzyme-linked immunosorbent assay (ELISA) (R&D systems, Minneapolis, USA)

[3] = system: monocytes; assay: Stimulatory activity of conditioned media from LPS-treated monocytes on IL-17 production by γδ T cells; assay type: cell-based, mouse; details: LPS-stimulated cultured monocytes treated with 100 nM 9-cisRA
Procedure: (§3) Monocytes were purified from 3 days cultured mouse bone marrow cells using the monocytes isolation kit, according to the manufacturer's instruction (BM, Miltenyi Biotec, Bergisch Gladbach, Germany). 5×10^5 monocytes plated in a 48 well plate were preincubated with 100 nM 9-cisRA for 1 hour followed by stimulation with 0.5 μg/ml LPS for 4 hours for RNA or overnight for cytokines. The total RNA was extracted using an RNeasy® Plus Mimi Kit (Cat No. 74134, QIAGEN GmbH, Hilden, Germany) according to manufacturer's instruction. The RNA and collected supernatants were stored at −80° C. until further use.
as §1, §2

[4] = system: monocytes; assay: Nanostring myeloid innate immunity array of LPS-stimulated cultured monocytes; assay type: cell-based, mouse; details: 100 nM 9-cis RA added to culture media
Procedure: as §3
This was performed by the Genomic and RNA Profiling Core at Baylor College of Medicine using the NanoString Technologies nCounter Gene Expression Mouse Myeloid Innate Immunity V2 Panel codeset (NS_MM_Myeloid_V2.0) containing 770 unique pairs of 35-50 bp reporter probes and biotin-labeled capture probes, including internal reference controls (NanoString, Seattle, WA) as previously described. (Alam et al., 2021a). Data was analyzed by ROSALIND® (https://rosalind.bio/), with a HyperScale architecture developed by ROSALIND, Inc. (San Diego, CA).

[5] = system: monocytes; details: 9-cis RA treated monocytes; cited from earlier work

In the case of `CC1(C)CCC(C)(C)c2cc(NC(=O)c3ccc(C(=O)O)cc3)ccc21` [AM80], the “IL-17 production by γδ T cells” value [1] is given as “suppress”.
For `CC/C=C\C/C=C\C/C=C\C/C=C\C/C=C\C/C=C\CCC(=O)O` [DHA, omega-3 docosahexaenoic acid], the “effect on IL-17A/F cytokine concentration in supernatants” value (“effect … in supernatants” for short) [2] was “suppressive effects”.
In the case of `CCCCCCCC/C=C\CCCCCCCC(=O)O` [oleic acid], the “effect … in supernatants” value [2] is reported as “suppressive effects”.
For `C=C(c1ccc(C(=O)O)cc1)c1cc2c(cc1C)C(C)(C)CCC2(C)C` [Bexarotene], the “effect … in supernatants” value [2] was “suppressive effects”.
For `CC1=C(/C=C/C(C)=C/C=C/C(C)=C/C(=O)O)C(C)(C)CCC1` [all trans retinoic acid], the “effect … in supernatants” value [2] was “suppressive activity”.
With `CN1c2ccc([N+](=O)[O-])cc2N=C(c2ccc(C(=O)O)cc2)c2cc3c(cc21)C(C)(C)CCC3(C)C` [HX531] the “effect on suppressive activity of the RAR agonist ATRA on IL-17A/F” value ([2]; C57BL/6 γδ T cells, anti-CD3/CD28 beads plus IL-23 (FIG. 12)) was “did not have any effect” and the “effect on the suppressive effects of RXRα agonists on IL-17A/F” value ([2]; C57BL/6 γδ T cells, anti-CD3/CD28 beads plus IL-23, with 9-cisRA, Bexarotene, DHA, oleic acid, honokiol (FIG. 12)) was “blocked”.
In the case of `C=CCc1ccc(O)c(-c2ccc(O)c(CC=C)c2)c1` [honokiol], the “effect … in supernatants” value [2] is reported as “suppressive effects”.
In the case of `CC1=C(/C=C/C(C)=C\C=C\C(C)=C\C(=O)O)C(C)(C)CCC1` [9-cis RA, 9-cis retinoic acid], the “suppressive effect on supernatant IL-17 concentration” value ([2]; B6 γδ T cells) is reported as 74%, the “effect … in supernatants” value [2] is reported as “suppressive effects” and the “suppressive effect on supernatant IL-17 concentration” value ([2]; Pinkie γδ T cells) is reported as 46%. For the same compound, the “suppression of IL-17 production” value ([2]; cultured γδ T cells stimulated by CD28 beads or beads plus IL-23) was over 70%, the “supernatant IL-17 concentration” value ([2]; stimulated γδ T cells from both strains (B6 and Pinkie), 100 nM) was “suppresses; also recorded: significantly reduced” and the “stimulatory activity of monocyte conditioned media on γδ T cell IL-17 production” value [3] was “suppresses; also recorded: significantly reduced”. The “stimulatory activity of monocyte conditioned media on γδ T cell IL-17 production” value ([3]; listed as 9-cisRA) was “significantly reduced”, the “expression of γδT17 inducing cytokines (Il23a, Il12b, Il1α, Il1β, Tnf-α)” value [4] was “suppressed; also recorded: reduced” and the “expression of γδT17 inducing cytokines (Il23a, Il12b, Il1α, Il1β, Tnf-α)” value ([4]; listed as 9-cisRA) was “suppresses”. For the same compound, the “levels of IL-1β and IL-23β in supernatants” value [5] was “reduced levels”.
